Like-named read-outs stand apart in the source and are kept apart here.
Assays:
[1] = tested on: Nitric Oxide Synthase (NOS); assay: Inhibition of nitric oxide synthase (nitrite fluorimetric assay, LPS-stimulated macrophage cultures); assay type: cell-based; conditions: LPS-stimulated macrophages
Description: (§1) Evaluation of the therapeutic effects of the novel PRS-211 compounds has now been carried out in a series of experimental systems to support the utility of these drugs as neuroprotectants, anti-inflammatory agents and anti-oxidative agents. These effects have been evaluated both in vitro and in vivo, and have been corroborated utilizing the following systems: • (a) Binding to the NMDA receptor linked channel: Non competitive antagonists of NMDA, the primary example of which is the compound MK-801, bind to a site within the NMDA receptor channel thus preventing the activation of the receptor-channel complex and the consequent neurotoxicity. The ability of various compounds to compete with the binding of tritium labeled MK-801 to brain membranes is considered a measure of their potency as NMDA non-competitive antagonists. • (b) Inhibition of prostaglandin production: The inhibitory effect of the new derivatives of Dexanabinol on prostaglandin synthesis is evaluated in macrophage cell cultures following LPS exposure to induce the inflammatory response. These assays are an indication of the anti-inflammatory activity of the individual analogs. • (c) Inhibition of Tumor Necrosis Factor Alpha: Specific aspects of the inflammatory response cascade are mediated by the cytokine TNFα. Inhibition of TNFα production and/or inhibition of TNFα release by the new analogs are assayed in macrophage cell cultures activated with LPS. This serves as another indication of the general anti-inflammatory potential of the novel compounds. • (d) Nitric Oxide Assay: As one aspect of the anti-oxidative potential of the novel analogs they were tested for their ability to inhibit the enzyme nitric oxide synthase (NOS). This assay can also serve as another indication of the anti-inflammatory cascade, as well as the anti-oxidative mechanisms. • (e) Ear Edema model: The anti-inflammatory activity of the new analogs is screened using an ear edema model in mice. This test system utilizes Croton oil or Arachidonic acid as inflammation inducers. The ability of the test compounds to prevent or diminish the inflammatory response to these stimulants is indicative of their systemic anti-inflammatory capability. • (f) Improved clinical outcome after closed head injury in rats: Severe head injury is associated with high mortality and severe neurological impairment. Animals subjected to head trauma in a controlled fashion serve as models in which to test drugs of therapeutic potential. Test compounds can be evaluated both for improved clinical outcome and for reduction of edema induced by closed head injury. The ability of compounds to reduce the severity of neurological symptoms and to reduce brain edema is considered a measure of their potency in reducing brain damage. • (g) Transient Middle cerebral artery occlusion (MCAo): The middle cerebral artery is the cerebral blood vessel most susceptible to stroke in humans. In animals, coagulation, permanent ligation or permanent placement of an occluding thread in the artery produces a permanent focal stroke affecting the MCA territory. Transient ligation or occlusion results in transient focal stroke. Both transient and permanent focal strokes result in varying degrees of edema and infarction in the affected brain regions. The ability of compounds to reduce the volumes of edema and infarction is considered a measure of their potential as anti-stroke treatment. • (h) Optic Nerve Crush: Application of mechanical pressure to the rat optical nerve results in crush injury of the axons, which is accompanied by immediate changes in oxidative metabolism and delayed axonal death and blindness. […]

[2] = tested on: PGE2; assay: Inhibition of prostaglandin synthesis (PGE2) in LPS-stimulated macrophage cell cultures; assay type: cell-based; conditions: LPS-stimulated macrophages
Description: as §1

[3] = tested on: NMDA receptor; assay: Radioligand binding: displacement of [3H]MK-801 from rat forebrain membranes; conditions: for NMDA receptor binding / affinity: MK-801 binding to membranes
Description: as §1

[4] = tested on: TNFα; assay: Inhibition of TNFα in LPS-stimulated macrophage cell cultures (ELISA); assay type: cell-based; conditions: LPS-stimulated macrophages
Description: as §1

[5] = tested on: transient middle cerebral artery occlusion in rats; assay: Transient middle cerebral artery occlusion (MCAo), infarct size evaluation; assay type: in vivo; conditions: for Mortality rate: 5 mg/kg IV at 2+0 hours
Description: Experimental design. The design was a randomized one, performed in a masked fashion as to whether drug or vehicle was being given, and an attempt was made to generate approximately equal numbers of drug- and vehicle-treated animals.
• a. Male rats (8 /treatment group) 320-380 gr. (Harlan Israel). • b. Halothane (Rhone Poulenc France) • c. Pentobarbitone (Pental Veterinary, CTS Israel). • d. Poly - L - Lysine (Sigma, USA). • e. Silk suture material 3-0 and 4-0. • f. Nylon (Polyamid) suture material 3-0. Four cm pieces were cut and positioned in a solution of 1% Poly - L - Lysine for 1 minute and dried in an oven (60 ° C) for 60 minutes. The tip of each piece was rounded under a flame. • g. Saline (Teva Medical). • h. Blank cremophor ethanol cosolvent (Pharmos). • i. Dexanabinol in cremophor ethanol cosolvent 50 mg/ml. (Both Dexanabinol and its vehicle were diluted in saline prior to drug administration. • j. Analogs PRS-211,092, PRS-211,095, PRS-211,128 PRS-211,132 and PRS-211,220 in cremophor ethanol cosolvent, 50 mg/ml. • k. The analogs were diluted in saline prior to drug administration.
• a. Surgical details of the MCAo method used for testing dexanabinol analogs, are presented in Belayev, et al., (Belayev, Busto, Weizhao, and Ginsberg, Stroke 26:2313-2319, 1995) which is incorporated herein in its entirety by reference. • b. Two hours after the start of MCAO, the animals were reanesthetized with halothane, the neck wound was re-opened and the nylon thread pulled out of the Internal carotid artery (ICA). The skin wound was then closed with 3-0 silk suture material and the animals allowed to recover from the anesthesia. • c. Three sets of animals were tested. In the first test immediately (2+0 hours) before thread removal the animals were injected IV with either analogs PRS-211,095, PRS-211,128, PRS-211,132, or Dexanabinol (PRS-211,007) each at a dosage of 5 mg/kg. One group of animals was treated with 5ml/kg vehicle alone. In another group, the animals subjected to "sham" operation, the suture was passed into the ICA, as described above, but immediately withdrawn. In the second set dexanabinol, PRS-211,092, PRS-211,095 and PRS-211,220 were used, at 2+0 hours. In the third set dexanabinol, PRS-211,092, PRS-211,095 and PRS-211,220 were administered 1 hour after thread removal (2+1 hours). Laser Doppler Flow (LDF) determined the success of MCAo - a drop of more then 50% in cerebral blood flow was considered as a sign of successful MCAo. Although LDF was a helpful corroborative sign, clinical outcome remained the final inclusion/exclusion criterion, since, with the exception of the PRS-211,220 staircase study, LDF was introduced only after initiation of the study.
A detailed investigation of neurological performance was carried out on the first, third and the 7th day after the MCAo. Two parameters were examined: posture and the flexion reflex (based on Nokon and Chuang, NeuroReport 9, 1998: 2081-2084). Animals were scored according to their performance:
One week after the ischemic insult, animals were euthanized with pentobarbitone 100 mg/kg IP. The animals were perfused through the heart with heparinized 4% formaldehyde solution in PBS (pH 7.4). Brains were then removed, and kept in the same solution before preparation for histological evaluation of the brain infarct volume.

[6] = tested on: ear edema model in mice; assay: Ear edema model; assay type: in vivo; conditions: Mus musculus, Croton oil (CO) as inducer, IP
Description: as §1

[7] = displacement of [3H]MK-801, rat forebrain membranes, read-out: NMDA BINDING IC50
[8] = [3H]MK-801 binding, text to Figure 2, read-out: mean IC50

Row | Compound | inhibition at 10 µM [1] [%] | inhibition at 10 µM [2] [%] | NMDA receptor binding / affinity [3] | IC50 [3, 7] [µM] | inhibition at 10 µM [4] [%] | function, reduction of mortality and brain morphometry [5] | Mortality rate [5] | ED50 [6] [µmol/kg] | IC50 [3, 8] [µM] | reduction of infarct size ([5]; IV, one week after the ischemic insult) [%]
1 | CCCCCCC(C)(C)c1cc(O)c2c(c1)OC(C)(C)[C@H]1CC=C(CN3CCC(C)CC3)C[C@H]21 (single isomer, unassigned) [211,251-000] | 37 | 91 | do not exhibit substantial NMDA receptor binding | > 100 | 0 |  |  |  |  | 
2 | CCCCCCC(C)(C)c1cc(O)c2c(c1)OC(C)(C)[C@H]1CC=C(CN3CCC(N4CCCCC4)CC3)C[C@H]21 (single isomer, unassigned) [211,257-000] | 39 | 88 | do not exhibit substantial NMDA receptor binding | > 100 | 10 |  |  |  |  | 
3 | CCCCCCC(C)(C)c1cc(O)c2c(c1)OC(C)(C)[C@H]1CC=C(CN3CCCC3)C[C@H]21 (stereo in doubt) [211,128-000] | 27 | 84 | no detectable affinity | > 20 | 48 | inactive | around 25% | 23 | > 20 | 
4 | CCCCCCC(C)(C)c1cc(O)c2c(c1)OC(C)(C)[C@H]1CC=C(CN3CCCCC3)C[C@H]21 (stereo in doubt) [211,159-000] | 27 | 87 |  | > 20 | 33 |  |  |  |  | 
5 | CCCCCCC(C)(C)c1cc(O)c2c(c1)OC(C)(C)[C@H]1CC=C(CC#N)C[C@H]21 [211,006-000] | 19 | 41 |  | 8 | 46 |  |  | 104 |  | 
6 | CCCCCCC(C)(C)c1cc(O)c2c(c1)OC(C)(C)[C@H]1CC=C(C[S+](C)[O-])C[C@H]21 (stereo partly drawn) [211,041-000] | 72 | 56 |  | 6 | 23 |  |  | 39 |  | 
7 | CCCCCCC(C)(C)c1cc(O)c2c(c1)OC(C)(C)[C@H]1CC=C(CNC(C)=O)C[C@H]21 [211,044-000] |  | 24 |  | 6 | 0 |  |  |  |  | 
8 | CC(C)(C)c1cc(O)c2c(c1)OC(C)(C)[C@H]1CC=C(CO)C[C@H]21 [211,047-000] |  | 28 |  | 100 | 0 |  |  |  |  | 
9 | CCCCCCC(C)(C)c1cc(O)c2c(c1)OC(C)(C)[C@H]1CC=C(Cn3cncn3)C[C@H]21 [211,102-000] |  |  |  | 2.5 |  |  |  |  |  | 
10 | CCCCCCC(C)(C)c1cc(O)c2c(c1)OC(C)(C)[C@H]1CC=C(Cn3cnnc3)C[C@H]21 [211,103-000] |  |  |  | 3 |  |  |  |  |  | 
11 | CCCCCCC(C)(C)c1cc(O)c2c(c1)OC(C)(C)[C@H]1CC=C(Cc3cccs3)C[C@H]21 [211,118-000] |  |  |  | 32 |  |  |  |  |  | 
12 | CCCCCCC(C)(C)c1cc(O)c2c(c1)OC(C)(C)[C@H]1CC=C(Cc3ccccc3)C[C@H]21 [211,119-000] |  | 14 |  | 62 |  |  |  |  |  | 
13 | CCCCCCC(C)(C)c1cc(O)c2c(c1)OC(C)(C)[C@H]1CC=C(CN3CCOCC3)C[C@H]21 [211,132-000] | 40 | 61 |  | 4.5 | 21 |  | around 25% | 70 | 4.5 | 
14 | CCCCCCC(C)(C)c1cc(O)c2c(c1)OC(C)(C)[C@H]1CC=C(CN3CCNCC3)C[C@H]21 [211,133-000] |  |  |  | > 100 |  |  |  |  |  | 
15 | CCCCCCC(C)(C)c1cc(O)c2c(c1)OC(C)(C)[C@H]1CC=C(CN3CCNC(C)C3)C[C@H]21 (stereo partly drawn) [211,134-000] |  |  |  | > 100 |  |  |  |  |  | 
16 | CCCCCCC(C)(C)c1cc(O)c2c(c1)OC(C)(C)[C@H]1CC=C(CN3CC=CCC3)C[C@H]21 [211,145-000] | 60 | 63 |  | 13 | 15 |  |  |  |  | 
17 | CCCCCCC(C)(C)c1cc(O)c2c(c1)OC(C)(C)[C@H]1CC=C(CN3CCN=C3SC)C[C@H]21 [211,204-000] | 85 | 83 |  | 10 | 28 |  |  | 34 |  | 50
18 | CCCCCCC(C)(C)c1cc(O)c2c(c1)OC(C)(C)[C@H]1CC=C(COCC(O)CO)C[C@H]21 (stereo partly drawn) [211,211-000] | 0 | 83 |  | 4.6 | 18 |  |  |  |  | 
19 | CCCCCCC(C)(C)c1cc(O)c2c(c1)OC(C)(C)[C@H]1CC=C(CN3CC=CC3)C[C@H]21 [211,212-000] | 0 | 96 |  | 7.5 | 14 |  |  |  |  | 
20 | CCCCCCC(C)(C)c1cc(O)c2c(c1)OC(C)(C)[C@H]1CC=C(CN3CCC(N4CCCC4)CC3)C[C@H]21 [211,253-000] | 27 | 92 | do not exhibit substantial NMDA receptor binding | > 100 | 0 |  |  |  |  | 
21 | CCCCCCC(C)(C)c1cc(O)c2c(c1)OC(C)(C)[C@H]1CC=C(CN(Cc3ccccc3)c3ccccc3)C[C@H]21 [211,255-000] | 7 | 94 | do not exhibit substantial NMDA receptor binding | > 100 | 0 |  |  |  |  | 

From patent EP1785417A2, “Novel non-psychotropic cannabinoids” (priority 2000, dated 2001)
